Source: patent US11433111B2 (priority 2019, dated 2022)

System: scopolamine induced memory impairment in male Swiss albino mice
Experiment: Passive avoidance test, scopolamine induced memory impairment
Conditions: 5 mg/kg p.o.; scopolamine 1 mg/kg i.p.; mean ± SEM of six mice
Source text: The rectangular larger compartment has 50 cm×50 cm grid floor and wooden walls of 35 cm height. The box was illuminated with a 100-W bulb placed 150 cm above the center. It has a roof, which can be opened or closed. One of the walls has a 6 cm×6 cm opening which to a dark smaller compartment having dimensions of 15 cm×15 cm. This compartment is provided with an electrifiable grid, which is connected to a constant current stimulator, and a ceiling that can be opened or closed. The connection between the two compartments can be closed with a sliding door made of transparent Plexiglas. […] The experiment was divided into three parts: An exploration test, Learning (Electric shock), and Retention testing.
The exploration test is done in three trials. During this, mice are placed in the center of the larger compartment facing away from the entrance to the dark compartment. The door between the two compartments is kept open. The mice are allowed to explore the apparatus (both larger and smaller compartments) for 3 minutes. In each trial, two things will be examined: Time taken by the mice to enter the dark compartment at each trial; and the total time spent by the animal in the dark compartment, using a stop-watch.
After the last exploration trial, the mice are placed in the larger compartment as done in the trial sessions. […]

## COc1cc2c(cc1OC)C(=O)C(CC1CCN(Cc3ccccc3)CC1)C2 (stereo not shown) [Donepezil]
  No. of crossings: 1.17 ± 0.17
